From US20080096850A1 (priority 2001, published 2008)

Experiments:
Assay type in all cases: cell-based, Staphylococcus aureus
[1] = tested on: TSST-1 production by S. aureus FRI-1187
[2] = tested on: TSST-1 production by S. aureus FRI-1169
[3] = tested on: TSST-1 production by S. aureus (MN8)
S. aureus (MN8) = tested on: S. aureus (MN8)

Molecule	ELISA: TSST-1 ng/OD unit [1] [ng/OD unit]	Reduction of Toxin % [1] [%]	ELISA: TSST-1 ng/OD unit [2] [ng/OD unit]	Reduction of Toxin % [2] [%]	ELISA: TSST-1 ng/OD unit [3] [ng/OD unit]	CFU/mL (S. aureus (MN8)) [CFU/mL]	Optical Density 600 nm (S. aureus (MN8))
Oc1cc(Cl)ccc1Oc1ccc(Cl)cc1Cl [Triclosan, triclosan]	95	86	40	96	–	–	–
4-hydroxydiphenyl methane [4-Hydroxydiphenyl-methane]	–	–	–	–	785	1.1E+08	0.581
Oc1c(Cl)cc(Cl)c(Cl)c1Cc1c(O)c(Cl)cc(Cl)c1Cl [Hexachlorophene, hexachlorophene]	–	–	–	–	330	–	–
